From patent US5540931A, “Methods for inducing site-specific immunosuppression and compositions of site specific immunosuppressants” (Hewitt; Charles W., priority 1994, dated 1996)

How the values were obtained:
[1] = tested on: mixed lymphocyte responses; assay: In vitro site-specific mixed lymphocyte response; assay type: cell-based; conditions: FIGS. 14 A and B
[2] = tested on: contact hypersensitivity reactions of skin tissue; conditions: topical
From the text: Rapamycin (0.01%), cyclosporine (0.1%), and rapamycin-cyclosporine (0.01%/0.1%) combined formulations, were applied in a trinary drug delivery system consisting of 1,2 propanediol, diethylene glycol monoethyl ether, and a glyceryl caprylate/caprate polyethylene glycol complex.
To further elaborate, rapamycin (0.001%), cyclosporine (0.01%), and rapamycin-cyclosporine (0.001%/0.01%) combined formulations, were applied in a trinary drug delivery system consisting of 1,2 propanediol, diethylene glycol monoethyl ether, and a glyceryl caprylate/caprate polyethylene glycol complex (6:3:1).

CO[C@H]1C[C@@H]2CC[C@@H](C)[C@@](O)(O2)C(=O)C(=O)N2CCCC[C@H]2C(=O)O[C@H]([C@H](C)C[C@@H]2CC[C@@H](O)[C@H](OC)C2)CC(=O)[C@H](C)/C=C(\C)[C@@H](O)[C@@H](OC)C(=O)[C@H](C)C[C@H](C)/C=C/C=C/C=C/1C [Rapamycin, rapamycin]
site-specific immune suppression of primary or activated cellular immune responses ([1]; agent alone): provided potent site-specific immune suppression
efficacy by inflammatory immune phase (early versus late) ([1]; local application): surprisingly efficacious with local application during both late and early inflammatory immune phases
efficacy by local inflammatory immune phase (early versus late) ([2]; contact dermatitis model): particularly efficacious during the late local inflammatory-immune phase
site-specific immune suppression in contact dermatitis at low concentrations ([2]; rapamycin 0.001%, cyclosporine 0.01%, combination 0.001%/0.01%, trinary vehicle (6:3:1)): provided surprising site-specific immune suppression
local inflammatory/immune response in contact hypersensitivity ([2]; rapamycin 0.01%, cyclosporine 0.1%, combination 0.01%/0.1%, 1,2 propanediol/Transcutol/Labrasol vehicle, FIG. 13B): inhibited local inflammatory/immune responses
